# Measured values published in paper PMC3411462, “Long-acting κ opioid antagonists nor-BNI, GNTI and JDTic: pharmacokinetics in mice and lipophilicity” (BMC Pharmacology, 2012).
# “And” between values parts separate entries of the source, which are not always exact repeats. Equal entries are not always repeated. Where two headings read alike, the source gives them in different places. Marks after values point to notes of the source that are not given here.
# How the values were obtained:
# [1] = Brain homogenate binding (unbound fraction by ultracentrifugation); type: in vitro ADME
# Method: (§1) Unbound fractions in brain homogenate and plasma were determined by ultracentrifugation as described previously. Briefly, drug-spiked matrices (5 μM drug in plasma or brain homogenate) were centrifuged at 600,000 g for 5 h at 37 °C (plasma) or 5 °C (brain). Aliquots of the middle (water) layer were added to an equal volume of blank matrix and extracted with 5 volumes of acetonitrile containing internal standard. Aliquots of the original spiked matrix were mixed with an equal volume of blank matrix and 2 volumes of plasma ultrafiltrate (plasma) or phosphate-buffered saline (tissue) and extracted with 10 volumes of acetonitrile. Extracts were centrifuged and analyzed by LC-MS-MS. Fraction unbound was calculated from the ratio of concentration in the water layer to that in the original spiked matrix, corrected for dilution as described previously. Based on previous results for basic drugs, in vivo free fraction in brain was assumed to be at least 3-fold lower than the in vitro free fraction in brain homogenate.
# [2] = Plasma binding (unbound fraction by ultracentrifugation); type: in vitro ADME; settings: 5 μM drug, mean, n = 3
# Method: as §1, with “previously.” for “previously. Based on previous results for basic drugs, in vivo free fraction in brain was assumed to be at least 3-fold lower than the in vitro free fraction in brain homogenate.”
# [3] = system: mice; experiment: Fatalities and behavioral effects after i.p. administration; settings: 100 mg kg^-1
# Method: Experiments were performed between 10 am and 6 pm. Mice were not used in other experiments, or exposed to other drugs, before testing began.
# Doses are reported by weight of the specified salt. Intraperitoneal injections were administered in distilled water vehicle (10 mL kg^-1). Body mass was measured to ±0.1 g. Some values were inadvertently measured on a low-precision balance (± 2.5 g); these timepoints were replicated at ±0.1 g.
# [4] = Brain and plasma concentrations in mice after intraperitoneal administration (LC-MS-MS), non-compartmental analysis; type: in vivo; settings: for [drug],brain (free base equivalent) / [drug],plasma (free base equivalent): listed as JDTic.2HCl.H2O
# Method: Doses are reported by weight of the specified salt. […] Body mass was measured to ±0.1 g.
# Mice were sacrificed by cervical dislocation, then decapitated for collection of brain and blood samples. Trunk blood was collected in 1.5 mL polypropylene micro-centrifuge tubes, shaken with a few crystals of EDTA and cooled in ice-water. Samples were centrifuged at 14,000 rpm (revolutions per minute) for 15 minutes at 3 °C, then stored in glass sample vials at −20 °C until analysis. Brains were removed and immersed for 30 seconds in 2-methylbutane over dry ice, then stored in polypropylene tubes at −20 °C until sample preparation. Sample tubes were thawed in ice-water, distilled water was added (2:1 by weight) and the brain homogenized with a probe sonicator for 3 minutes over ice-water (Fisher Sonic Dismembrator 300 at 35% power). The probe was rinsed with ethanol and distilled water between samples. Brain homogenate was stored in glass sample vials at −20 °C until analysis by LC-MS-MS.
# Drug concentrations (ng mL^-1) refer to the free base, and were measured by liquid chromatography-tandem mass spectrometry (LC-MS-MS) as described previously. Briefly, samples were shaken with 3 volumes of methanol and centrifuged at 3000 g. Aliquots of the supernatants were diluted with 5 volumes of water containing an appropriate internal standard. Extracts from in vitro and in vivo experiments were analyzed by multiple reaction monitoring on an API3000 or API4000 LC-MS-MS system with electrospray ion source, controlled and analyzed using the Analyst software package (Applied Biosystems, Foster City, CA). Chromatography was conducted on a Sprite Armor C18 analytical column (20 × 2.1 mm, 10 μm particle size, Analytical Sales and Products, Pompton Plains, NJ) with a 0.5 μm PEEK guard filter. Compounds were eluted with a gradient from 2% to 95% acetonitrile in water, both containing 0.1% formic acid. Compounds were detected in positive ion mode, tuned to the mass transition with the largest intensity. Analyte concentrations were determined by comparison of analyte:internal standard peak area ratios to those of standards prepared in the appropriate matrices.
# For calculation of mean concentrations, the earliest values below the MRC were substituted by MRC ÷ 2, as recommended elswhere. Pharmacokinetic parameters were calculated from mean concentrations using PKSolver, employing non-compartmental analysis for extravascular administration. Curves in figures were fitted using Origin 8.5 (OriginLab, Northampton, MA) using 2-compartment models. Confidence intervals and two-tailed p values (unpaired t test) were calculated using Graphpad Quickcalcs. One outlier was identified using Grubbs' test (p < 0.01) and excluded from the analysis; see Additional file 1.
# [5] = 0.5 h, 10 mg/kg i.p., individual mice, 10 mg/kg
# [6] = 1 h, 10 mg/kg i.p., individual mice, 10 mg/kg
# [7] = 2 h, 10 mg/kg i.p., individual mice, 10 mg/kg
# [8] = 4 h, 10 mg/kg i.p., individual mice, 10 mg/kg
# [9] = 24 h, 10 mg/kg i.p., individual mice, 10 mg/kg
smiles,measurement,setting,value
"CC(C)[C@@H](CN1CC[C@@](C)(c2cccc(O)c2)[C@@H](C)C1)NC(=O)[C@H]1Cc2ccc(O)cc2CN1 [JDTic, (3R)-7-Hydroxy-N-((1S)-1-{[(3R,4R)-4-(3-hydroxyphenyl)-3,4-dimethyl-1-piperidinyl]methyl}-2-methylpropyl)-1,2,3,4-tetrahydro-3-isoquinolinecarboxamide]","fraction unbound at 5 h, 5 μM","[1]; 5 μM drug, mean, n = 3, corrected for dilution, read-out: Fraction unbound, Brain homogenate",0.07
same,"fraction unbound at 5 h, 5 μM","[1]; Brain homogenate, read-out: % free (uncorrected)",0.18
same,"fraction unbound at 5 h, 5 μM","[1]; assumed at least 3-fold lower than in homogenate, read-out: Fu,brain (in vivo est.)",< 0.0233
same,"fraction unbound at 5 h, 5 μM",[2],0.19
same,Behavioral effects observed,[3],"Only mild behavioral effects, such as hiccup-like spasms and shivering"
same,Fatalities,[3],no fatalities
same,Time of maximal mean plasma level,"[4]; 10 mg kg^-1 i.p., mice",approximately 30 minutes
same,"[drug],brain (free base equivalent)",[4]; [5],66.3 ng/g and 60.3 ng/g and 155 ng/g and 37.5 ng/g and 49.5 ng/g and 57.9 ng/g
same,"[drug],plasma (free base equivalent)",[4]; [5],263 ng/mL and 237 ng/mL and 330 ng/mL and 248 ng/mL and 145 ng/mL
same,"[drug],brain (free base equivalent)",[4]; [6],61.5 ng/g and 45.3 ng/g and 38.1 ng/g and 116 ng/g and 49.2 ng/g and 56.7 ng/g
same,"[drug],plasma (free base equivalent)",[4]; [6],152 ng/mL and 270 ng/mL and 114 ng/mL and 126 ng/mL and 130 ng/mL and 134 ng/mL
same,"[drug],brain (free base equivalent)",[4]; [7],48.3 ng/g and 36.9 ng/g
same,"[drug],plasma (free base equivalent)",[4]; [7],57.3 ng/mL and 71 ng/mL
same,"[drug],brain (free base equivalent)",[4]; [8],80.4 ng/g and 46.2 ng/g
same,"[drug],plasma (free base equivalent)",[4]; [8],69.6 ng/mL and 40.3 ng/mL and 30 ng/mL
same,"[drug],brain (free base equivalent)",[4]; [9],30.3 ng/g and 32.1 ng/g
same,"[drug],plasma (free base equivalent)",[4]; [9],<4 ng/mL
same,"[drug],brain (free base equivalent)","[4]; 48 h, 10 mg/kg i.p., individual mice, 10 mg/kg",936* ng/g and 32.7 ng/g and 16.7 ng/g
same,"[drug],brain (free base equivalent)","[4]; 168 h, 10 mg/kg i.p., individual mice, 10 mg/kg",<12 ng/g (2×) and 43.8 ng/g
same,Peak unbound brain level,"[4]; at 30 minutes, 10 mg kg^-1 i.p., estimate",up to 4 nM
same,AUMC 0-inf_obs,"[4]; brain NCA, 10 mg/kg i.p.",3158084 ng/ml*h^2
same,Tlag,"[4]; brain NCA, 10 mg/kg i.p.",0 h
same,"C max,brain","[4]; brain, 10 mg kg^-1 i.p., mice",71 ng/mL
same,Decline of mean plasma concentration from peak,"[4]; by 24 hours, 10 mg kg^-1 i.p.",at least 98%
same,concentration at 4 h,"[4]; male, Swiss-Webster (Crl:CFW(SW)), mouse, brain, intraperitoneal, 10 mg/kg, 4 h, 10 mg/kg, read-out: Conc (brain, NCA input)",62.4 ng/mL
same,concentration at 24 h,"[4]; male, Swiss-Webster (Crl:CFW(SW)), mouse, brain, intraperitoneal, 10 mg/kg, 24 h, 10 mg/kg, read-out: Conc (brain, NCA input)",30.9 ng/mL
same,concentration at 48 h,"[4]; male, Swiss-Webster (Crl:CFW(SW)), mouse, brain, intraperitoneal, 10 mg/kg, 48 h, 10 mg/kg, read-out: Conc (brain, NCA input)",24.7 ng/mL
same,concentration at 168 h,"[4]; male, Swiss-Webster (Crl:CFW(SW)), mouse, brain, intraperitoneal, 10 mg/kg, 168 h, 10 mg/kg, read-out: Conc (brain, NCA input)",18.6 ng/mL
same,concentration at 4 h,"[4]; male, Swiss-Webster (Crl:CFW(SW)), mouse, brain, ip, 10 mg/kg, 4 h, 10 mg/kg i.p., individual mice, read-out: [drug],brain (free base equivalent)",60.6 ng/g
same,concentration at 4 h,"[4]; male, Swiss-Webster (Crl:CFW(SW)), mouse, brain, ip, 10 mg/kg, 4 h, 10 mg/kg i.p., read-out: mean (brain)",62.4 ng/g
same,concentration at 24 h,"[4]; male, Swiss-Webster (Crl:CFW(SW)), mouse, brain, ip, 10 mg/kg, 24 h, 10 mg/kg i.p., individual mice, read-out: [drug],brain (free base equivalent)",30.3 ng/g
same,concentration at 24 h,"[4]; male, Swiss-Webster (Crl:CFW(SW)), mouse, brain, ip, 10 mg/kg, 24 h, 10 mg/kg i.p., read-out: mean (brain)",30.9 ng/g
same,concentration at 48 h,"[4]; male, Swiss-Webster (Crl:CFW(SW)), mouse, brain, ip, 10 mg/kg, 48 h, 10 mg/kg i.p., outlier excluded, read-out: mean (brain)",24.7 ng/g
same,concentration at 168 h,"[4]; male, Swiss-Webster (Crl:CFW(SW)), mouse, brain, ip, 10 mg/kg, 168 h, 10 mg/kg i.p., <MRC substituted by MRC/2, read-out: mean (brain)",18.6 ng/g
same,AUC(0-inf),"[4]; male, Swiss-Webster (Crl:CFW(SW)), mouse, brain, ip, 10 mg/kg, brain NCA, 10 mg/kg i.p., read-out: AUC 0-inf_obs",10300 ng·h/mL
same,Kp uu,"[4]; male, Swiss-Webster (Crl:CFW(SW)), mouse, brain/plasma (unbound), ip, supplement, 10 mg/kg i.p., read-out: Kp,uu,brain (AUC0–∞,brain,u / AUC0–∞,p,u)",< 1.42
same,Kp,"[4]; male, Swiss-Webster (Crl:CFW(SW)), mouse, brain/plasma, ip, 10 mg/kg, supplement, 10 mg/kg i.p., read-out: Kp,brain (AUC0–∞,brain / AUC0–∞,p)",11.6
same,MRT inf,"[4]; male, Swiss-Webster (Crl:CFW(SW)), mouse, ip, brain NCA, 10 mg/kg i.p., read-out: MRT 0-inf_obs",12.8 days
same,Kp uu,"[4]; male, Swiss-Webster, mouse, brain and plasma (unbound), ip, 10 mg kg^-1, 10 mg kg^-1 i.p., mice, read-out: K p,uu,brain (AUC0–∞,brain,u/AUC0–∞,p,u)",≤ 1.4
same,Kp uu,"[4]; male, Swiss-Webster, mouse, brain and plasma (unbound), ip, 10 mg/kg, 10 mg kg^-1 i.p., mice, read-out: Cmax,brain,u/Cmax,p,u",< 0.04
same,Kp,"[4]; male, Swiss-Webster, mouse, brain and plasma, ip, 10 mg kg^-1, 10 mg kg^-1 i.p., mice, read-out: K p,brain (AUC0–∞,brain/AUC0–∞,p)",11.6
same,Kp,"[4]; male, Swiss-Webster, mouse, brain and plasma, ip, 10 mg/kg, 10 mg kg^-1 i.p., mice, read-out: Cmax,brain/Cmax,p",0.29
same,concentration at 0.5 h,"[4]; male, Swiss-Webster, mouse, brain, intraperitoneal, 10 mg/kg, 0.5 h, 10 mg/kg, read-out: Conc (brain, NCA input)",71.1 ng/mL
same,concentration at 1 h,"[4]; male, Swiss-Webster, mouse, brain, intraperitoneal, 10 mg/kg, 1 h, 10 mg/kg, read-out: Conc (brain, NCA input)",61.1 ng/mL
